Assay results as given in patent publication US10563263B2, “Genetic polymorphisms associated with statin response and cardiovascular diseases, methods of detection and uses thereof” (CELERA CORPORATION, priority 2010, dated 2020).

Columns and labels:
[1] = test system: CHD (fatal CHD, definite non-fatal MI, or revascularization); experiment: CARE: SNP by pravastatin treatment interaction, logistic regression (synergy index), CHD endpoint; type: in vivo, human
Text: CARE was a secondary prevention trial and WOSCOPS was a primary prevention trial.
The CHD endpoint was defined in the analyses herein of CARE as a composite endpoint of fatal CHD, definite non-fatal MI, or revascularization, and was defined in the analyses herein of WOSCOPS as a composite endpoint of death from CHD, nonfatal MI, or revascularization. In both the CARE and WOSCOPS analyses herein, the CVD endpoint was defined as a composite endpoint of CHD or stroke. […] Revascularization, which can include percutaneous transluminal coronary angioplasty (PTCA), stent placement, and coronary artery bypass graft (CABG), are medical interventions that indicate the presence of CHD.
Cohort and case-only study designs were used to identify SNPs associated with response to statin treatment.
For each SNP, a logistic regression model having treatment status as the dependent variable and SNP as the independent predictor variable was performed, with terms for age, sex and race included in the model as covariates. The anti-log of the regression coefficient corresponding to the SNP is an estimate of the synergy index (SI) (Davis et al., “Imputing gene-treatment interactions when the genotype distribution is unknown using case-only and putative placebo analyses-a new method for the Genetics of Hypertension Associated Treatment (GenHAT) study”, Statistics in Medicine 23: (2004), pages 2413-2427). The SI is a ratio of odds ratios: for example in the CARE and WOSCOPS studies, the SI represents the factor by which the odds-ratio of statin treatment, compared with placebo, among major homozygous individuals is multiplied by in order to obtain the odds-ratio of treatment vs. placebo among heterozygous individuals; and multiplied by a second time to obtain the odds-ratio of treatment vs. placebo in minor homozygous individuals. The case-only study design results in a valid estimate of the SI under the assumption that genotype and treatment are independent in the population. In a randomized clinical trial, genotype and treatment are independent by design. The p-value for the regression coefficient corresponding to the SNP results from a test of the null hypothesis that the regression coefficient is equal to zero (SI is equal to one) and thus small p-values indicate the SI is unlikely equal to one and that the effect of treatment likely differs by genotype.
A case-only study design was used to test whether the reduction of CHD events by statin therapy (for CARE and WOSCOPS studies) differed according to genotype (a treatment by SNP interaction) for each SNP evaluated in the study.

CHD or CVD = experiment: WOSCOPS: SNP by pravastatin treatment interaction, logistic regression (synergy index), cohort source; End-point (CHD or CVD) of the marker not given; type: in vivo, human

## CC[C@H](C)C(=O)O[C@H]1C[C@H](O)C=C2C=C[C@H](C)[C@H](CC[C@@H](O)C[C@@H](O)CC(=O)O)[C@H]21 [Pravastatin, pravastatin]
[1]; rs4289236 allele A vs G (ref), Source cohort
  CARE OR: 1.37
[1]; rs4611134 allele A vs G (ref), Source cohort
  CARE OR: 1.54
[1]; rs4643388 allele G vs A (ref), Source cohort
  CARE OR: 1.32
[1]; rs4682522 allele C vs A (ref), Source cohort
  CARE OR: 0.59
[1]; rs4830819 allele G vs A (ref), Source cohort
  CARE OR: 0.57
[1]; rs4869033 allele G vs A (ref), Source cohort
  CARE OR: 0.31
[1]; rs4924215 allele A vs G (ref), Source cohort
  CARE OR: 1.77
[1]; rs4986146 allele A vs G (ref), Source cohort
  CARE OR: 0.62
[1]; rs4993917 allele A vs C (ref), Source cohort
  CARE OR: 0.57
[1]; rs5017584 allele A vs G (ref), Source cohort
  CARE OR: 1.61
[1]; rs6075209 allele A vs G (ref), Source cohort
  CARE OR: 0.63
[1]; rs6080603 allele A vs C (ref), Source cohort
  CARE OR: 0.59
[1]; rs6491586 allele G vs A (ref), Source cohort
  CARE OR: 1.59
[1]; rs6505669 allele G vs A (ref), Source cohort
  CARE OR: 1.70
[1]; rs6911817, allele A1 A (non-ref), A2 G (ref), source cohort, endpoint/model not given
  CARE OR: 2.15
[1]; rs7094941, allele A1 G (non-ref), A2 A (ref), source cohort, endpoint/model not given
  CARE OR: 0.78
[1]; rs7179134 allele A vs G (ref), Source cohort
  CARE OR: 3.54
[1]; rs7193741 allele A vs C (ref), Source cohort
  CARE OR: 2.16
[1]; rs7327364 allele A vs G (ref), Source cohort
  CARE OR: 0.69
[1]; rs7497613, allele A1 A (non-ref), A2 G (ref), source cohort, endpoint/model not given
  CARE OR: 0.65
[1]; rs7616936, allele A1 C (non-ref), A2 A (ref), source cohort, endpoint/model not given
  CARE OR: 1.47
[1]; rs7705993 allele G vs A (ref), Source cohort
  CARE OR: 1.50
[1]; rs7767024, allele A1 A (non-ref), A2 G (ref), source cohort, endpoint/model not given
  CARE OR: 1.32
[1]; rs7910196, allele A1 G (non-ref), A2 A (ref), source cohort, endpoint/model not given
  CARE OR: 1.36
[1]; rs8051893 allele A vs G (ref), Source cohort
  CARE OR: 0.69
[1]; rs8109631 allele A vs G (ref), Source cohort
  CARE OR: 1.53
[1]; rs9375683 allele G vs A (ref), Source cohort
  CARE OR: 1.63
[1]; rs9436636 allele A vs G (ref), Source cohort
  CARE OR: 1.34
[1]; rs9446187 allele A vs G (ref), Source cohort
  CARE OR: 1.92
[1]; rs9658127, allele A1 A (non-ref), A2 G (ref), source cohort, endpoint/model not given
  CARE OR: 2.03
[1]; rs10088505 allele A vs G (ref), Source Caseonly
  CARE OR: 1.52
[1]; rs10088524, allele A1 G (non-ref), A2 A (ref), source cohort, endpoint/model not given
  CARE OR: 1.46
[1]; rs10103297, allele A1 A (non-ref), A2 G (ref), source cohort, endpoint/model not given
  CARE OR: 1.84
[1]; rs10120126 allele G vs A (ref), Source CaseOnly
  CARE OR: 0.53
[1]; rs10189905 allele C vs A (ref), Source cohort
  CARE OR: 0.50
[1]; rs10500736 allele G vs A (ref), Source cohort
  CARE OR: 0.61
[1]; rs10517923 allele A vs G (ref), Source cohort
  CARE OR: 1.62
[1]; rs10814422 allele G vs A (ref), Source cohort
  CARE OR: 0.64
[1]; rs10849442 allele A vs G (ref), Source Caseonly
  CARE OR: 0.56
[1]; rs10875941, allele A1 G (non-ref), A2 A (ref), source cohort, endpoint/model not given
  CARE OR: 0.73
[1]; rs10973013 allele A vs G (ref), Source cohort
  CARE OR: 0.59
[1]; rs11076320 allele C vs A (ref), Source cohort
  CARE OR: 0.64
[1]; rs11082492 allele A vs C (ref), Source cohort
  CARE OR: 1.46
[1]; rs11925875 allele A vs G (ref), Source cohort
  CARE OR: 0.72
[1]; rs12556591 allele G vs A (ref), Source cohort
  CARE OR: 0.57
[1]; rs12657484, allele A1 G (non-ref), A2 A (ref), source cohort, endpoint/model not given
  CARE OR: 1.36
[1]; rs13279522 allele G vs A (ref), Source cohort
  CARE OR: 0.62
[1]; rs13314266 allele G vs A (ref), Source cohort
  CARE OR: 0.60
[1]; rs13318232 allele G vs A (ref), Source cohort
  CARE OR: 0.60
[1]; rs16861467, allele A1 G (non-ref), A2 A (ref), source cohort, endpoint/model not given
  CARE OR: 0.60
[1]; rs17076974 allele A vs G (ref), Source cohort
  CARE OR: 1.46
[1]; rs17546598 allele A vs G (ref), Source cohort
  CARE OR: 1.57
[1]; rs17706237 allele G vs A (ref), Source CaseOnly
  CARE OR: 1.80
[1]; rs17716275, allele A1 A (non-ref), A2 G (ref), source cohort, endpoint/model not given
  CARE OR: 1.91
[1]; rs72746987 allele A vs G (ref), Source cohort
  CARE OR: 0.43
CHD or CVD; marker rs1068705, pravastatin vs placebo
  OR: 0.74
CHD or CVD; marker rs1564078, pravastatin vs placebo
  OR: 0.79
CHD or CVD; marker rs9557509, pravastatin vs placebo
  OR: 1.42
CHD or CVD; marker rs10802865, pravastatin vs placebo
  OR: 1.16
CHD or CVD; marker rs11668038, pravastatin vs placebo
  OR: 1.25
CHD or CVD; marker rs17035071, pravastatin vs placebo
  OR: 1.22
